Test results taken from patent publication US11084799B2, “Polymorph of benzamide compound and preparation method and applications thereof” (SHENYANG SINOCHEM AGROCHEMICALS R&D CO., LTD., priority 2016, dated 2021).
“Also recorded” adds a separate entry of the source.

How the values were obtained:
[1] = Pourability of 10% water suspending agent; format: physicochemical
From the text: (§1) The formulation includes the following composition: 10 parts of polymorph A of Compound 1 or polymorph B of Compound 1 obtained in above examples, 3 parts of sodium naphthalenesulfonate formaldehyde condensate, 3 parts of sodium salt of alkyl naphthalene sulfonic acid polycondensate, 0.1 part of white carbon black, 0.1 part of xanthan gum, 2 parts of pesticide emulsifier 0201B, 5 parts of glycol, 0.2 part of WJX-1 and water which is used to complement up to 100 parts by weight were successively added to a mixing tank for mixing. After conducting coarse grinding and homogenization through high shear, the mixture was grinded in a sand mill and detected the particle size of sanding materials through a sedimentograph. After the particle size meeting the standard requirements, the mixture was filtered to obtain 10% water suspending agent of polymorph A of Compound 1 or polymorph B of Compound 1.

[2] = Particle size distribution of 10% water suspending agent; format: physicochemical
From the text: as §1

[3] = Heat storage (54 ± 2° C.) of 10% water suspending agent; format: physicochemical
From the text: as §1

[4] = Formulation sample (10% water suspending agent) kept at normal temperatures; format: physicochemical
From the text: as §1

[5] = Hygroscopicity on exposure to changing air humidity; format: physicochemical; settings: exposed to changing air humidity
From the text: (§2) The advantages of the polymorph A in aspects such as chemical stability, filterability, solubility, hygroscopicity, melting point, solid density and flowability can have a significant impact on the developments of the production method and a formulation and on the quality and efficacy of a plant treating agent. […] The stability is favorable for determination of consistency of Compound 1. These features enable the polymorph A of Compound 1 to be well suitable for preparing a long effective and stable solid formulation so that the polymorph A has stable content of active component.

[6] = Suspensibility in processing of the formulation; format: physicochemical; settings: compared with polymorph B
From the text: (§3) The polymorph A also presents better performance than the compound 1 prepared by the method (example 5) in the patent WO02010003350A1 in the aspect of the physical properties of the formulation.

[7] = Insecticidal activity (pharmacodynamic stability), polymorph A versus polymorph B; settings: compared with polymorph B
From the text: as §3

[8] = Dispersibility of 10% water suspending agent; format: physicochemical; settings: after normal temperature for 2 years and heat storage (54 ± 2° C./14 d)
From the text: as §1

[9] = format: physicochemical
From the text: In the present invention, the slurry of the polymorph B of Compound 1 is heated in the presence of the solvent to convert into the polymorph A of Compound 1. The solvent is selected from the alcohol solvent and/or water. The alcohol solvent is selected from methanol, ethanol, n-propanol, isopropanol, n-butanol and n-pentanol. The adopted solvent can well convert the polymorph B into the polymorph A. In addition, the water as the solvent is well used to convert the polymorph B into the polymorph A. Furthermore, in the conversion process, at a temperature not more than 100° C., almost 100% conversion is completed at high yield within proper time. In the selection of the solvent, the water is selected to effectively reduce cost compared with the organic solvent. […] As an alternative, if the polymorph A with high concentration is in the water, then the polymorph A can be separated through evaporation of the water.

[10] = Crystal form stability during long-term storage; format: physicochemical
From the text: as §2

## CNC(=O)c1cc(Cl)cc(Cl)c1NC(=O)c1cc(Br)nn1-c1ncc(Cl)cc1Cl [Compound 1 Prepared by the Method in WO2010003350A1] [3-bromo-N-[2,4-dichloro-6-[(methylamino)carbonyl]phenyl]-1-(3,5-dichloro-2-pyridinyl)-1H-pyrazole-5-carboxamide, reference compound]
[1]; 10% water suspending agent
  Pourability: flow / flowability of the formulation sample: suspending agent has poor
  Pourability: residues after washed: unqualified.
[2]; suspending agent, no storage time stated
  Particle size distribution: distribution is wide.
[3]; suspending agent, observed after heat storage for 3 days
  Heat storage (54 ± 2° C.): state of the formulation sample: solidified and could not shake.
[4]; suspending agent, after kept for 1 week
  Kept at normal temperatures: flowability of the formulation sample: suspending agent has poor

## CNC(=O)c1cc(Cl)cc(Cl)c1NC(=O)c1cc(Br)nn1-c1ncc(Cl)cc1Cl [Polymorph A, 3-bromo-N-[2,4-dichloro-6-[(methylamino)carbonyl]phenyl]-1-(3,5-dichloro-2-pyridinyl)-1H-pyrazole-5-carboxamide]
[1]; 10% water suspending agent
  Pourability (overall verdict): qualified.
  Pourability: flow / flowability of the formulation sample: good flowability; after
  Pourability: residues after washed: ≤ 0.5%; the pourability is
[1]; in the processing of the formulation, compared with polymorph B
  Pourability: better pourability
[5]
  Hygroscopicity: does not present obvious hygroscopicity
[2]; 10% water suspending agent, after normal temperature for 2 years and heat storage (54 ± 2° C./14 d), printed as almost unchanged
  Particle size distribution: unchanged.
[6]
  Suspensibility: better suspensibility
[3]; 10% water suspending agent, after kept for 14 days at 54 ± 2° C.
  Heat storage (54 ± 2° C.): flowability of the formulation sample: agent has good flowability
[7]
  Insecticidal activity: better insecticidal activity
[8]
  Flowability (Dispersibility line): good dispersibility and good; also recorded: good flowability
[4]; 10% water suspending agent, after kept for two years
  Kept at normal temperatures: flowability of the formulation sample: suspending agent has good
[4]; 10% water suspending agent, after kept for two years, printed as almost unchanged
  Kept at normal temperatures: viscosity of the formulation sample: unchanged viscosity.
[9]
  Solubility in the water: very low solubility
[10]
  Conversion into other crystal forms: does not convert into other crystal forms; also recorded: may not be converted into other crystal forms
  Stability: excellent stability

## CNC(=O)c1cc(Cl)cc(Cl)c1NC(=O)c1cc(Br)nn1-c1ncc(Cl)cc1Cl [Polymorph B, 3-bromo-N-[2,4-dichloro-6-[(methylamino)carbonyl]phenyl]-1-(3,5-dichloro-2-pyridinyl)-1H-pyrazole-5-carboxamide]
[1]; 10% water suspending agent
  Pourability: flow / flowability of the formulation sample: suspending agent does not
  Pourability: residues after washed: unqualified.
[5]
  Hygroscopicity: obvious hygroscopicity
[2]; 10% water suspending agent, after kept at normal temperature for 1 week
  Particle size distribution: wide.
[3]; 10% water suspending agent, observed after heat storage for 1 h
  Heat storage (54 ± 2° C.): state of the formulation sample: solidified and could not shake.
[4]; 10% water suspending agent, observed after kept for 2 h
  Kept at normal temperatures: state of the formulation sample of the suspending agent: suspending agent is solidified
